Measured values as given in patent publication US20240376097A1, “BCL-2 Inhibitor” (BeiGene Ltd., priority 2020, published 2024).

Key:
[1] = Metabolic Stability Study, liver microsome incubation (mouse); assay type: in vitro ADME; settings: mouse liver microsomes 0.5 mg/mL, 1 μM compound, NADPH; for half-life at 1 μM: NA^# = very stable, beyond the detection limits, read-out: T1/2 (min) mouse; for microsomal CLint at 1 μM: read-out: CLint (μL × min^−1 × mg^−1) mouse
Procedure: (§1) Biological Example: Metabolic Stability Study
(§2) The metabolic stability of some compounds was evaluated by using the liver microsome incubation system in vitro. Briefly, the test compounds at 1 μM, were incubated with 0.5 mg/mL liver microsomes from different species (human, dog, rat and mouse) with an NADPH regenerating system at 37° C. Samples were quenched at three time points (0, 30, 60 min) with organic solvent containing internal standards, and the supernatant was analyzed for parent loss via LC-MS/MS. Midazolam was used as the positive control to validate the incubation system.
(§3) where Cprotein is the microsomal protein concentration in the incubation system.
(§4) The value of CLint and T1/2 of Example F132b in WO2019210818 and representative compounds of the disclosure were determined, and the results are shown in Table 5.

[2] = target: Recombinant human Bcl-2 protein (Homo sapiens (Human), UniProt P10415); assay: Bcl-2 TR-FRET Assay; assay type: binding; settings: wild type Bcl-2; unit inferred; read-out: Bcl-2 WT
In short: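 Displacement of FITC-labelled Bak peptide (0.5 nM) from 0.05 nM human Bcl-2, detected by TR-FRET with Tb-cryptate anti-6His antibody after 1 h at room temperature. Compounds, 10-point series, preincubated 0.5 h with protein in 20 mM potassium phosphate pH 7.5, 50 mM NaCl. IC50s fitted by four-parameter logistic.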

[3] = target: recombinant human Bcl-2 D103Y protein (Homo sapiens (Human), UniProt P10415, D103Y); assay: Bcl-2-D103Y Biochemical Assay (TR-FRET); assay type: binding
In short: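 Compounds titrated against the Bcl-2 D103Y–ligand interaction; inhibition derived from the TR-FRET emission ratio 490 nm/520 nm after 337 nm excitation. Four-parameter logistic fitting gave IC50.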

[4] = Metabolic Stability Study, liver microsome incubation (human); assay type: in vitro ADME; settings: human liver microsomes 0.5 mg/mL, 1 μM compound, NADPH; for half-life at 1 μM: NA^# = very stable, beyond the detection limits, read-out: T1/2 (min) Human; for microsomal CLint at 1 μM: read-out: CLint (μL × min^−1 × mg^−1) Human
Procedure: as §1, §2, §3, §4

[5] = system: RS4;11 (BCL-2 dependent acute lymphoblastic leukemia cell line); assay: RS4;11 Cell Proliferation Assay; assay type: cell-based; settings: Homo sapiens, RS4;11 cells, read-out: Cellular proliferation assay (IC50, nM) RS4
In short: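 Viability measured via CellTiter-Glo luminescence after a 48 h, 37 °C exposure to compounds (10 points, highest 1 μM). Seeding was 50,000 RS4;11 cells per well in 10% FBS RPMI-1640; IC50 given as mean.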

[6] = system: BCL-2 G101V knock-in cell line H96 (derive from RS4;11); assay: Bcl 2-G101V Knock-In RS4;11 Cell Proliferation Assay; assay type: cell-based; settings: Homo sapiens, RS4-11, 48 h, RS4;11 Bcl-2 G101V knock-in clone H96, 48 hrs, CellTiter-GLO, read-out: Cellular proliferation assay (IC50, nM) RS4
In short: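 CellTiter-Glo luminescence after 48 h, 37 °C compound treatment (10 concentrations, maximum 1 μM or 10 μM) gave mean IC50 values. Cells were 50,000 per well of H96, a BCL2-G101V knock-in single clone derived from RS4;11 by Cas9 editing.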

recombinant human Bcl-2 D103Y protein, sequence (P10415 whole entry D103Y): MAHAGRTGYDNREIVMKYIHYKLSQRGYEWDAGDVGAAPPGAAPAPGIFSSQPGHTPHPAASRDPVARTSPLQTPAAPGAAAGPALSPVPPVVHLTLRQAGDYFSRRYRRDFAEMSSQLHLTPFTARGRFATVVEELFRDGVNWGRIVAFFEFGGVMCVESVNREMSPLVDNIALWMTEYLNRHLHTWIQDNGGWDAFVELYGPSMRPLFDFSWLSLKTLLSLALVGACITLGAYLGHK
Recombinant human Bcl-2 protein, sequence (P10415 whole entry): as the sequence (P10415 whole entry D103Y) above, with Y103D counted along it

Compound | half-life at 1 μM [1] | microsomal CLint at 1 μM [1] | IC50 [2] | IC50 ([3]; TR-FRET, FITC labeled Bak peptide) | Ratio of Bcl-2 D103Y/Bcl-2 WT ([3]; ratio of IC50) | half-life at 1 μM [4] | microsomal CLint at 1 μM [4] | IC50 [5] | IC50 [6]
COc1ccc(CN2CCN(C3CC4(CCN(c5ccc(C(=O)NS(=O)(=O)c6ccc(NC[C@H]7COCCO7)c([N+](=O)[O-])c6)c(Oc6cnc7[nH]ccc7c6)c5)CC4)C3)[C@H](c3ccccc3C(C)C)C2)cc1 (single isomer, unassigned) [Example 33, N-((4-((((S)-1,4-dioxan-2-yl)methyl)amino)-3-nitrophenyl)sulfonyl)-2-((1H-pyrrolo[2,3-b]pyridin-5-yl)oxy)-4-(2-((R or S)-2-(2-isopropylphenyl)-4-(4-methoxybenzyl)piperazin-1-yl)-7-azaspiro[3.5]nonan-7-yl)benzamide] | 233 min | 5.9 µL/min/mg | 0.038 nM | 0.094 nM | 2.5 | 1820 min | 0.8 µL/min/mg |  | 
COc1ccc(CN2CCN(C3CC4(CCN(c5ccc(C(=O)NS(=O)(=O)c6ccc(NC[C@H]7CC[C@](C)(O)CC7)c([N+](=O)[O-])c6)c(Oc6cnc7[nH]ccc7c6)c5)CC4)C3)C(c3ccccc3C(C)C)C2)cc1 (some centres unmarked) [Example 19, 2-((1H-pyrrolo[2,3-b]pyridin-5-yl)oxy)-N-((4-((((1r,4r)-4-hydroxy-4-methylcyclohexyl)methyl)amino)-3-nitrophenyl)sulfonyl)-4-(2-(2-(2-isopropylphenyl)-4-(4-methoxybenzyl)piperazin-1-yl)-7-azaspiro[3.5]nonan-7-yl)benzamide] | 292 min | 4.7 µL/min/mg |  |  |  | 1230 min | 1.1 µL/min/mg | 0.33 nM | 1.9 nM
COc1cc(CN2CCN(C3CC4(CCN(c5ccc(C(=O)NS(=O)(=O)c6ccc(NC[C@H]7CC[C@](C)(O)CC7)c([N+](=O)[O-])c6)c(Oc6cnc7[nH]ccc7c6)c5)CC4)C3)C(c3ccccc3C(C)C)C2)cc(OC)c1 (some centres unmarked) [Example 49] | 205 min | 6.7 µL/min/mg |  |  |  | 93.4 min | 14.8 µL/min/mg | 0.49 nM | 2.4 nM
CC(C)c1ccccc1[C@@H]1CN(Cc2ccc(OC3CC3)c(OC3CC3)c2)CCN1C1CC2(C1)CN(c1ccc(C(=O)NS(=O)(=O)c3ccc(NC[C@H]4CC[C@](C)(O)CC4)c([N+](=O)[O-])c3)c(Oc3cnc4[nH]cc(F)c4c3)c1)C2 [Example 363, 4-(6-((R)-4-(3,4-dicyclopropoxybenzyl)-2-(2-isopropylphenyl)piperazin-1-yl)-2-azaspiro[3.3]heptan-2-yl)-2-((3-fluoro-1H-pyrrolo[2,3-b]pyridin-5-yl)oxy)-N-((4-((((1r,4r)-4-hydroxy-4-methylcyclohexyl)methyl)amino)-3-nitrophenyl)sulfonyl) benzamide] |  | < 1 µL/min/mg |  |  |  |  | < 1 µL/min/mg | 0.11 nM | 0.14 nM
